The test system of data set [1] is MDA-MB-231. Put plainly: Cell cycle arrest in human MDA-MB-231 cells assessed as accumulation at G2 phase at 3 uM after 24 hrs by propidium iodide/RNase A staining-based flow cytometric analysis (reference value: 27.76%). The format is functional.
Data set [2] relates to MDA-MB-231. Put plainly: Induction of apoptosis in human MDA-MB-231 cells assessed as early apoptotic cells at 6 uM after 48 hrs by Annexin-V-FITC/propidium iodide staining based flow cytometry (reference value: 4.33%). The format is functional.
For data set [3], the system named is MCF7. Description: Cell cycle arrest in human MCF7 cells assessed as accumulation at S phase at 3 uM after 24 hrs by propidium iodide/RNase A staining-based flow cytometric analysis (reference value: 17.17%). The class given is functional. On the technique in general: In flow cytometry, cells or beads pass a laser one at a time.
Data set [4] relates to MDA-MB-231. Put plainly: Induction of apoptosis in human MDA-MB-231 cells assessed as increase in p53 expression at 3 to 12 uM after 48 hrs by Western blot analysis. The class given is functional, cell-based. A general note: Immunoblotting shows a protein as a band on a membrane.
The subject of data set [5] is MCF7. Put plainly: Antimigratory activity against human MCF7 cells assessed as reduction in scratch healing after 72 hrs by microscopy based scratch wound assay. The format is functional, cell-based.
In data set [6] the test system is MCF7. Description: Effect on total AKT protein level in human MCF7 cells up to 12 uM after 8 hrs by Western blot analysis. The format is ADME, cell-based. Particulars: mcf7, 8 h.
The subject of data set [7] is MDA-MB-231. Description: Induction of apoptosis in human MDA-MB-231 cells assessed as early apoptotic cells at 2 uM after 48 hrs by Annexin-V-FITC/propidium iodide staining based flow cytometry (reference value: 4.33%). The format is functional.
Data set [8] concerns MCF7. Put plainly: Cell cycle arrest in human MCF7 cells assessed as accumulation at G2 phase at 12 uM after 24 hrs by propidium iodide/RNase A staining-based flow cytometric analysis (reference value: 30.62%). The class given is functional.
Data set [9] deals with MCF7. Put plainly: Induction of apoptosis in human MCF7 cells assessed as late apoptotic cells at 4uM after 48 hrs by Annexin-V-FITC/propidium iodide staining based flow cytometry (reference value: 4.28%). The format is functional.

Calls of active or inactive are those of the source. The rule behind the calls is not given here.

As for `FC(F)(F)c1ccc(CSc2nc(Nc3ccc(C(F)(F)F)cc3)c3ccccc3n2)cc1`, the Activity in the data set on MDA-MB-231 [1] is 28.04%; in the data set on MDA-MB-231 [2], 10.4%; in the data set on MCF7 [3], 20.44%; in the data set on MCF7 [5] it was “Dose-dependent effect”; in the data set with MCF7 [6], “Non-Toxic”; with MDA-MB-231 [7], 6.56%. Further, the Activity in the data set with MCF7 [8] is 14.32%; with MCF7 [9] it was 7.49%. The outcome in the data set on MDA-MB-231 [4] was Active.
